These results are taken from patent US20060241108A1, “Substituted phenoxazines and acridones as inhibitors of AKT” (St. Jude Children's Research Hospital, priority 2005, published 2006).

One data set has as its system endogenous AKT. Put plainly: Cellular AKT kinase activity: AKT immunoprecipitated from treated Rh1 cells phosphorylates GSK-3 fusion protein. The data set is classed as cell-based, human. Particulars: 5 μM, 1 hour, IGF-I 10 minutes. The method, then: Determination of cellular AKT kinase activity. AKT kinase activity can be quantitated using a commercial assay kit (available from Cell Signaling Technology, Beverly, Mass.) according to the manufacturer's instructions. Specifically, Rh1 cells are seeded in serum-free medium at a density of 4×10^6 per 10-cm plate. […] Cells are then stimulated with ±IGF-I ([…]) for 10 minutes and washed once with ice-cold PBS. Cells are lysed in 200 μl of ice-cold 1× lysis buffer (20 mM Tris, pH 7.5; 150 mM NaCl; 1 mM EDTA; 1 mM EGTA; 1% Triton X-100; 2.5 mM sodium pyrophosphate; 1 mM β-glycerol phosphate; 1 mM Na3VO4; 1 mM phenylmethylsulfonyl fluoride; and 1 mM leupeptin) and incubated for 10 minutes on ice. The cell lysates are then centrifuged for 10 minutes at 17,500×g at 4° C. Volumes of the supernatants are preferably adjusted so that each sample contains an equal amount of protein (150 μg). The supernatants are then incubated with immobilized (cross-linked) anti-AKT antibody (Cell Signaling Technology, Beverly, Mass., catalog # 9279) for 3 hours at 4° C. […]
To determine directly whether compounds, such as the phenoxazine compounds in Table I, inhibit AKT activation in cells, the activation of AKT by IGF-I can be evaluated by assessing either phosphorylation of AKT (Ser473), or the in vitro kinase activity of protein immunoprecipitated by anti-AKT antibody. […]

For the next data set, the system named is Rh30 cells. Put plainly: Determination of apoptosis (Annexin V-FITC/propidium iodide flow cytometry), Rh30 cells. The settings on record: Rh30, 7.5 μM, four days, n = 3.
The target of data set [1] is T1, recombinant, full length AKT1/PKBα (Homo sapiens, UniProt P31749).
T1 construct: active, recombinant, full length AKT1/PKBα protein; purchased Upstate Biotechnology, Lake Placid, N.Y
T1 sequence (P31749 whole entry): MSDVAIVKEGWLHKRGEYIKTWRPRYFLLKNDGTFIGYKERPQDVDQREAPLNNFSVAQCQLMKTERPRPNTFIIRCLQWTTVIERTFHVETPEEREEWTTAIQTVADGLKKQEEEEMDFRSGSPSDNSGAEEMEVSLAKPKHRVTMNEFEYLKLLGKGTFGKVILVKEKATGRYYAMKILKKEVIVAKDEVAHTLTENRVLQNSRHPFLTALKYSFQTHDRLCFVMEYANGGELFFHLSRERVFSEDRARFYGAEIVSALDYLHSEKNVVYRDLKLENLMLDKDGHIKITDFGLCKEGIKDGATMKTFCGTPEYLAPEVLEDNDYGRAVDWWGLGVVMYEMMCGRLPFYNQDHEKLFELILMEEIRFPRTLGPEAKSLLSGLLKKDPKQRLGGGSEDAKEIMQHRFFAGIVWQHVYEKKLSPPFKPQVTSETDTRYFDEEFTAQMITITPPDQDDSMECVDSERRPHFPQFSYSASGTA
Put plainly: In vitro inhibition of recombinant AKT (GSK-3 fusion protein phosphorylation). The settings on record: 5 μM, pre-incubated two hours on ice. The format is biochemical. The protocol:
In vitro inhibition of recombinant AKT. In vitro kinase assays can be performed using an active, recombinant, full length AKT1/PKBα protein (available from Upstate Biotechnology, Lake Placid, N.Y.) or with an active, recombinant AKT1/PKBα protein, referred to herein as AKT1ΔPH, that lacks the pleckstrin homology domain (also available from Upstate Biotechnology). 10 ng of the recombinant enzyme in 25 μl 1× kinase buffer (25 mM Tris, pH 7.5; 5 mM β-glycerol phosphate; 2 mM dithiothreitol; 0.1 mM Na3VO4; and 10 mM MgCl2) is mixed with 2.5 μl of DMSO and a test compound (5 μM). […] After incubating the suspensions at 30° C. for 30 minutes, the reaction can be terminated by the addition of 3×SDS sample buffer (187.5 mM Tris-HCl, pH 6.8; 6% SDS; 30% glycerol; 150 mM dithiothreitol; and 0.03% bromophenol blue). The samples are then boiled for five minutes. The proteins can be separated on a 12% SDS polyacrylamide gel, and subsequently transferred to a nitrocellulose membrane. The membranes are preferably incubated with rabbit polyclonal anti-phospho-GSK-3α/β (Ser21/9) antibody (available from Cell Signaling Technology, Beverly, Mass., catalog # 9331).
The phosphorylation status of GSK-3 protein can also be used to study the AKT inhibitory activity of phenoxazines (including the phenoxazine compounds listed in Table I above) and acridone compounds. […]

Procedure for Rh30 cells: Determination of apoptosis. An ApoAlert™ Annexin V-FITC Apoptosis kit (available from Clontech, Palo Alto, Calif.) can be used to evaluate the extent of apoptosis within cell populations. Cells (Rh1: 350,000 per 75-cm^2 flask; Rh18: 800,000 per 75-cm^2 flask; or Rh30: 500,000 per 75-cm^2 flask) are preferably grown overnight in complete medium. On day 1, cells are treated with DMSO (0.1%; vehicle control) or with a test compound (e.g., a phenoxazine or acridone compound). After 4 days, the cells are trypsinized, washed with PBS, and resuspended in 200 μl of binding buffer. Cells are then incubated with 10 μl of annexin V-FITC (final concentration, 1 μg/ml) and 500 ng of propidium iodide in a final volume of 410 μl. Cells are preferably incubated at room temperature in the dark for ten minutes before flow cytometric analysis with an FACSCalibur™ Flow Cytometry System (Becton Dickinson, San Jose, Calif.).
For instance, Rh1, Rh18 and/or Rh30 cells can be grown in complete medium with 0.1% DMSO (as a negative control) or with one or more test compounds, e.g., any of the phenoxazine compounds listed in Table I, above, including but not limited to the compounds 10B, 11B, 13B, 14B or 15B. […] Cells are then harvested, and the extent of apoptosis evaluated, e.g., by an ApoAlert™ (Clontech, Palo Alto, Calif.) flow cytometric assay.

On to “10-[4′-[(β-hydroxyethyl)piperazino]butyl]-2-chlorophenoxazine [Compound 15B]”, for which the “phosphorylation of GSK-3 fusion protein by AKT immunoprecipitated from treated cells” value in the data set on endogenous AKT is recorded as “completely inhibited”. The “Percentage of cells ± SD, Apoptotic” value in the data set with Rh30 cells is recorded as 88.67 ± 1.69%. Moreover, the “inhibition of GSK-3 phosphorylation by recombinant AKT” value in data set [1] is given as “completely blocked”.
As for `CCN(CC)CCCCN1c2ccccc2Oc2ccc(Cl)cc21` [Compound 10B, 10-[4′-(N-diethylamino)butyl]-2-chlorophenoxazine], the “phosphorylation of GSK-3 fusion protein by AKT immunoprecipitated from treated cells” value with endogenous AKT is on record as “completely inhibited”. In the data set on Rh30 cells, the “Percentage of cells ± SD, Apoptotic” value is 43.00 ± 2.17% and the “Percentage of cells ± SD, Viable” value was 56.67 ± 2.62%. In data set [1], the “inhibition of GSK-3 phosphorylation by recombinant AKT” value was “at least nearly complete”.
